# Measurements: patent US20210386738A1, “COMBINATION OF PRMT5 INHIBITORS AND BCL-2 INHIBITORS” (GLAXOSMITHKLINE INTELLECTUAL PROPERTY DEVELOPMENT LIMITED, priority 2018, published 2021)
# Test system: lymphoma cell line DB
# Experiment: Serial dilutions: fixed ABT-199 concentration with Compound A titration, six-day cell proliferation
# Assay type: cell-based
# Conditions: for compound A required for gIC100: six days
# Method: Serial dilutions were performed for the combination to ascertain the change in gIC50, gIC100 and dEC50 when the inhibitors are used together in a PRMT5 inhibitor cell proliferation. A first compound plate was prepared where PRMT5 inhibitor, Compound A, was prepared with a 20-point, two-fold dilution series of compound A from column 1 to 20. A second compound plate was prepared using the BCL-2 inhibitor ABT-199. ABT-199 was titrated in a 16-point 2-fold dilution series from row A to Q. A third plate was then created by added equal volume of 12 ul (ABT-199) from each well in the second plate into the corresponding well in the first plate. The third plate comprised rows from A to Q, each row comprising a fixed concentration of ABT-199. Columns 1-20 comprised varying concentrations of compound A from the 20-point dilution. Plates were incubated for six days at the conditions described above. Lymphoma cell line DB was treated with the solution in each of the wells. Cell growth was measured using CellTiter-Glo (Promega) and luminescence signal was detected with a BioTek Synergy Neo microplate reader. A plate of untreated cells was read at the time of compound/biologic addition to determine the T0 value representing the starting number of cells. Data were fit with a four-parameter equation to generate a concentration response curve for each row using Assay Client software. A comparison was made across each row in the third plate to determine, when keeping a fixed concentration of ABT-199, what concentration of compound A is needed to reach the gIC50, gIC100 or dEC50 respectively and the fold change compared to treating the same cell with compound A alone.
# Tables 4a-c show the results of the above serial dilution experiments wherein ‘fold change’ is the difference between the amount of compound A needed to achieve gIC50, gIC100 or dEC50 respectively, compared to the amount of compound A needed to achieve gIC50, gIC100 or dEC50 respectively when compound A is given as a single agent.
structure (smiles),measurement,setting,value
O=C(NC[C@H](O)CN1CCc2ccccc2C1)c1ccnc(NC2CCC2)c1 [Compound A],"Fold change over compound A single agent gIC50 (631 nM, most potent of the two agents)",with fixed ABT-199 4 nM,1.2
same,"Fold change over compound A single agent gIC100 (6489 nM, most potent of the two agents)",with fixed ABT-199 4 nM,0.9
same,compound A required for gIC100,with fixed ABT-199 4 nM,6989 nM
same,"Fold change over compound A single agent gIC50 (631 nM, most potent of the two agents)",with fixed ABT-199 7 nM,1.4
same,"Fold change over compound A single agent gIC100 (6489 nM, most potent of the two agents)",with fixed ABT-199 7 nM,1.0
same,compound A required for gIC100,with fixed ABT-199 7 nM,6362 nM
same,"Fold change over compound A single agent gIC50 (631 nM, most potent of the two agents)",with fixed ABT-199 14 nM,1.6
same,"Fold change over compound A single agent gIC100 (6489 nM, most potent of the two agents)",with fixed ABT-199 14 nM,0.9
same,compound A required for gIC100,with fixed ABT-199 14 nM,6896 nM
same,"Fold change over compound A single agent gIC50 (631 nM, most potent of the two agents)",with fixed ABT-199 29 nM,1.8
same,"Fold change over compound A single agent gIC100 (6489 nM, most potent of the two agents)",with fixed ABT-199 29 nM,1.2
same,compound A required for gIC100,with fixed ABT-199 29 nM,5525 nM
same,"Fold change over compound A single agent gIC50 (631 nM, most potent of the two agents)",with fixed ABT-199 57 nM,2.6
same,"Fold change over compound A single agent gIC100 (6489 nM, most potent of the two agents)",with fixed ABT-199 57 nM,2.2
same,Fold change over top concentration of compound A or ABT-199 inhibitor used in the assay (since no dEC50 observed with single agents),with fixed ABT-199 57 nM,1.2
same,compound A required for gIC100,with fixed ABT-199 57 nM,3004 nM
same,"Fold change over compound A single agent gIC50 (631 nM, most potent of the two agents)",with fixed ABT-199 115 nM,3.0
same,"Fold change over compound A single agent gIC100 (6489 nM, most potent of the two agents)",with fixed ABT-199 115 nM,2.4
same,Fold change over top concentration of compound A or ABT-199 inhibitor used in the assay (since no dEC50 observed with single agents),with fixed ABT-199 115 nM,1.4
same,compound A required for gIC100,with fixed ABT-199 115 nM,2716 nM
same,"Fold change over compound A single agent gIC50 (631 nM, most potent of the two agents)",with fixed ABT-199 229 nM,5.5
same,"Fold change over compound A single agent gIC100 (6489 nM, most potent of the two agents)",with fixed ABT-199 229 nM,2.5
same,Fold change over top concentration of compound A or ABT-199 inhibitor used in the assay (since no dEC50 observed with single agents),with fixed ABT-199 229 nM,1.4
same,compound A required for gIC100,with fixed ABT-199 229 nM,2624 nM
same,"Fold change over compound A single agent gIC50 (631 nM, most potent of the two agents)",with fixed ABT-199 458 nM,5.3
same,"Fold change over compound A single agent gIC100 (6489 nM, most potent of the two agents)",with fixed ABT-199 458 nM,3.1
same,Fold change over top concentration of compound A or ABT-199 inhibitor used in the assay (since no dEC50 observed with single agents),with fixed ABT-199 458 nM,1.7
same,compound A required for gIC100,with fixed ABT-199 458 nM,2118 nM
same,"Fold change over compound A single agent gIC50 (631 nM, most potent of the two agents)",with fixed ABT-199 916 nM,8.1
same,"Fold change over compound A single agent gIC100 (6489 nM, most potent of the two agents)",with fixed ABT-199 916 nM,3.3
same,Fold change over top concentration of compound A or ABT-199 inhibitor used in the assay (since no dEC50 observed with single agents),with fixed ABT-199 916 nM,2.6
same,compound A required for gIC100,with fixed ABT-199 916 nM,1994 nM
same,"Fold change over compound A single agent gIC50 (631 nM, most potent of the two agents)",with fixed ABT-199 1833 nM,8.5
same,"Fold change over compound A single agent gIC100 (6489 nM, most potent of the two agents)",with fixed ABT-199 1833 nM,4.0
same,Fold change over top concentration of compound A or ABT-199 inhibitor used in the assay (since no dEC50 observed with single agents),with fixed ABT-199 1833 nM,3.1
same,compound A required for gIC100,with fixed ABT-199 1833 nM,1604 nM
same,"Fold change over compound A single agent gIC50 (631 nM, most potent of the two agents)",with fixed ABT-199 3666 nM,7.8
same,"Fold change over compound A single agent gIC100 (6489 nM, most potent of the two agents)",with fixed ABT-199 3666 nM,3.7
same,Fold change over top concentration of compound A or ABT-199 inhibitor used in the assay (since no dEC50 observed with single agents),with fixed ABT-199 3666 nM,3.3
same,compound A required for gIC100,with fixed ABT-199 3666 nM,1745 nM
same,"Fold change over compound A single agent gIC50 (631 nM, most potent of the two agents)",with fixed ABT-199 7331 nM,43
same,"Fold change over compound A single agent gIC100 (6489 nM, most potent of the two agents)",with fixed ABT-199 7331 nM,3.8
same,Fold change over top concentration of compound A or ABT-199 inhibitor used in the assay (since no dEC50 observed with single agents),with fixed ABT-199 7331 nM,3.2
same,compound A required for gIC100,with fixed ABT-199 7331 nM,1707 nM
